According to US20220119354A1, “DIAMINO-SUBSTITUTED PYRIDINES AND PYRIMIDINES AS HERBICIDES” (FMC Corporation, priority 2019, published 2022):

How the values were obtained:
Assay type in all cases: in vivo
[1] = tested on: pigweed (Amaranthus retroflexus); assay: Test A preemergence, pigweed; conditions: 0 to 100 scale; for Pigweed plant response rating: 0 is no effect, 100 is complete control
In short: (§1)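 Plants grown in a loam soil and sand blend were treated either preemergence by directed soil spray or postemergence when 2 to 10 cm tall (one- to two-leaf stage). Formulation: non-phytotoxic solvent mixture with surfactant. Greenhouse hold ~10 d, then visual injury assessment on a 0–100 scale.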

[2] = tested on: ducksalad (Heteranthera limosa); assay: Test B flooded paddy test, ducksalad; conditions: Flood, 250 g ai/ha, applied to paddy water, 2-leaf stage, visual evaluation after 13 to 15 d
In short: (§2)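 Visual injury scores run from 0 (no effect) to 100 (complete control), assigned by comparison with controls 13 to 15 d after treatment. Treatment went into floodwater standing 3 cm over the soil of pots holding 2-leaf plants.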

[3] = tested on: pigweed (Amaranthus retroflexus); assay: Test A postemergence, pigweed; conditions: 0 to 100 scale
In short: as §1

corn (Zea mays) = assay: Test A postemergence, corn; conditions: 0 to 100 scale
In short: as §1

[4] = tested on: sedge, umbrella (small-flower umbrella sedge, Cyperus difformis); assay: Test B flooded paddy test, umbrella sedge; conditions: Flood, 250 g ai/ha, applied to paddy water, 2-leaf stage, visual evaluation after 13 to 15 d
In short: as §2

[5] = tested on: ragweed (common ragweed, Ambrosia elatior); assay: Test A postemergence, ragweed; conditions: 0 to 100 scale
In short: as §1

[6] = tested on: ryegrass, Italian (Lolium multiflorum); assay: Test A postemergence, Italian ryegrass; conditions: 0 to 100 scale
In short: as §1

rice (Oryza sativa) = assay: Test B flooded paddy test, rice; conditions: Flood, 250 g ai/ha, applied to paddy water, 2-leaf stage, visual evaluation after 13 to 15 d
In short: as §2

[7] = tested on: barnyardgrass (Echinochloa crus-galli); assay: Test B flooded paddy test, barnyardgrass; conditions: Flood, 250 g ai/ha, applied to paddy water, 2-leaf stage, visual evaluation after 13 to 15 d
In short: as §2

[8] = tested on: ryegrass, Italian (Lolium multiflorum); assay: Test A preemergence, Italian ryegrass; conditions: 0 to 100 scale; for Ryegrass, Italian plant response rating: 0 is no effect, 100 is complete control
In short: as §1

[9] = tested on: galium (catchweed bedstraw, Galium aparine); assay: Test A postemergence, galium; conditions: 0 to 100 scale
In short: as §1

kochia (Kochia scoparia) [10] = assay: Test A preemergence, kochia; conditions: 0 to 100 scale; for Kochia plant response rating: 0 is no effect, 100 is complete control
In short: as §1

[11] = tested on: barnyardgrass (Echinochloa crus-galli); assay: Test A preemergence, barnyardgrass; conditions: 0 to 100 scale; for Barnyardgrass plant response rating: 0 is no effect, 100 is complete control
In short: as §1

[12] = tested on: ragweed (common ragweed, Ambrosia elatior); assay: Test A preemergence, ragweed; conditions: 0 to 100 scale; for Ragweed plant response rating: 0 is no effect, 100 is complete control
In short: as §1

[13] = tested on: barnyardgrass (Echinochloa crus-galli); assay: Test A postemergence, barnyardgrass; conditions: 0 to 100 scale
In short: as §1

[14] = tested on: foxtail, giant (Setaria faberii); assay: Test A postemergence, giant foxtail; conditions: 0 to 100 scale
In short: as §1

[15] = tested on: wheat (Triticum aestivum); assay: Test A postemergence, wheat; conditions: 0 to 100 scale
In short: as §1

[16] = tested on: blackgrass (Alopecurus myosuroides); assay: Test A postemergence, blackgrass; conditions: 0 to 100 scale
In short: as §1

[17] = tested on: foxtail, giant (Setaria faberii); assay: Test A preemergence, giant foxtail; conditions: 0 to 100 scale; for Foxtail, Giant plant response rating: 0 is no effect, 100 is complete control
In short: as §1

kochia (Kochia scoparia) [18] = assay: Test A postemergence, kochia; conditions: 0 to 100 scale
In short: as §1

[19] = 125 g ai/ha, 0 no effect, 100 complete control
[20] = 500 g ai/ha, 0 is no effect, 100 is complete control

In the case of `CCC(Nc1ncc(C(F)(F)F)c(N)n1)c1cc2ccccc2o1` (racemic) [Compound 28], the “Plant response rating, Pigweed” value ([1]; 125 g ai/ha) is reported as 90, the “Plant response rating, Pigweed” value ([1]; 500 g ai/ha) is reported as 100 and the “Plant response rating, Ducksalad (0 to 100 scale, 0 is no effect, 100 is complete control)” value [2] is reported as 75. For the same compound, the “Plant response rating, Pigweed” value ([3]; 125 g ai/ha) was 90, the “Plant response rating, Pigweed” value ([3]; 500 g ai/ha) was 100 and the “Plant response rating, Corn” value (corn (Zea mays); 125 g ai/ha) was 0. The “Plant response rating, Corn” value (corn (Zea mays); 500 g ai/ha) was 80, the “Plant response rating, Sedge, Umbrella (0 to 100 scale, 0 is no effect, 100 is complete control)” value [4] was 100 and the “Plant response rating, Ragweed” value ([5]; 125 g ai/ha) was 20. For the same compound, the “Plant response rating, Ragweed” value ([5]; 500 g ai/ha) was 60, the “Plant response rating, Ryegrass, Italian” value ([6]; 125 g ai/ha) was 0 and the “Plant response rating, Ryegrass, Italian” value ([6]; 500 g ai/ha) was 0. For the same compound, the “Plant response rating, Rice (0 to 100 scale, 0 is no effect, 100 is complete control)” value (rice (Oryza sativa)) was 20, the “Plant response rating, Barnyardgrass (0 to 100 scale, 0 is no effect, 100 is complete control)” value [7] was 0 and the “Plant response rating, Ryegrass, Italian” value ([8]; 125 g ai/ha) was 20. The “Plant response rating, Ryegrass, Italian” value ([8]; 500 g ai/ha) was 60, the “Plant response rating, Galium” value ([9]; 125 g ai/ha) was 70 and the “Plant response rating, Galium” value ([9]; 500 g ai/ha) was 90. The “Plant response rating, Kochia” value (kochia (Kochia scoparia) [10]; 125 g ai/ha) was 10, the “Plant response rating, Kochia” value (kochia (Kochia scoparia) [10]; 500 g ai/ha) was 90 and the “Plant response rating, Barnyardgrass” value ([11]; 125 g ai/ha) was 50. For the same compound, the “Plant response rating, Barnyardgrass” value ([11]; 500 g ai/ha) was 90, the “Plant response rating, Ragweed” value ([12]; 125 g ai/ha) was 20 and the “Plant response rating, Ragweed” value ([12]; 500 g ai/ha) was 100. For the same compound, the “Plant response rating, Barnyardgrass” value ([13]; 125 g ai/ha) was 0, the “Plant response rating, Barnyardgrass” value ([13]; 500 g ai/ha) was 30 and the “Plant response rating, Foxtail, Giant” value ([14]; 125 g ai/ha) was 10. The “Plant response rating, Foxtail, Giant” value ([14]; 500 g ai/ha) was 40, the “Plant response rating, Wheat” value ([15]; 125 g ai/ha) was 0 and the “Plant response rating, Wheat” value ([15]; 500 g ai/ha) was 10. For the same compound, the “Plant response rating, Blackgrass” value ([16]; 125 g ai/ha) was 10, the “Plant response rating, Blackgrass” value ([16]; 500 g ai/ha) was 80 and the “Plant response rating, Foxtail, Giant” value ([17]; 125 g ai/ha) was 60. For the same compound, the “Plant response rating, Foxtail, Giant” value ([17]; 500 g ai/ha) was 90, the “Plant response rating, Kochia” value (kochia (Kochia scoparia) [18]; 125 g ai/ha) was 30 and the “Plant response rating, Kochia” value (kochia (Kochia scoparia) [18]; 500 g ai/ha) was 80.

For `CC(Nc1ncc(C(F)(F)F)c(N)n1)c1coc2cc(F)ccc12` (racemic) [Compound 51], the “Pigweed plant response rating” value ([1]; 125 g ai/ha) was 90, the “Pigweed plant response rating” value ([1]; 500 g ai/ha) was 100 and the “Plant response rating, Ducksalad (0 to 100 scale, 0 is no effect, 100 is complete control)” value [2] was 0. For the same compound, the “Plant response rating, Pigweed” value [3, 19] was 100, the “Pigweed plant response rating” value [3, 20] was 100 and the “Plant response rating, Corn” value (corn (Zea mays); [19]) was 0. For the same compound, the “Corn plant response rating” value (corn (Zea mays); [20]) was 10, the “Plant response rating, Sedge, Umbrella (0 to 100 scale, 0 is no effect, 100 is complete control)” value [4] was 0 and the “Plant response rating, Ragweed” value [5, 19] was 90. For the same compound, the “Ragweed plant response rating” value [5, 20] was 100, the “Plant response rating, Ryegrass, Italian” value [6, 19] was 30 and the “Ryegrass, Italian plant response rating” value [6, 20] was 50. The “Plant response rating, Rice (0 to 100 scale, 0 is no effect, 100 is complete control)” value (rice (Oryza sativa)) was 0, the “Plant response rating, Barnyardgrass (0 to 100 scale, 0 is no effect, 100 is complete control)” value [7] was 0 and the “Ryegrass, Italian plant response rating” value ([8]; 125 g ai/ha) was 60. For the same compound, the “Ryegrass, Italian plant response rating” value ([8]; 500 g ai/ha) was 80, the “Plant response rating, Galium” value [9, 19] was 70 and the “Galium plant response rating” value [9, 20] was 90. For the same compound, the “Kochia plant response rating” value (kochia (Kochia scoparia) [10]; 125 g ai/ha) was 90, the “Kochia plant response rating” value (kochia (Kochia scoparia) [10]; 500 g ai/ha) was 100 and the “Barnyardgrass plant response rating” value ([11]; 125 g ai/ha) was 40. For the same compound, the “Barnyardgrass plant response rating” value ([11]; 500 g ai/ha) was 100, the “Ragweed plant response rating” value ([12]; 125 g ai/ha) was 100 and the “Ragweed plant response rating” value ([12]; 500 g ai/ha) was 100. For the same compound, the “Plant response rating, Barnyardgrass” value [13, 19] was 0, the “Barnyardgrass plant response rating” value [13, 20] was 50 and the “Plant response rating, Foxtail, Giant” value [14, 19] was 20. For the same compound, the “Foxtail, Giant plant response rating” value [14, 20] was 50, the “Plant response rating, Wheat” value [15, 19] was 0 and the “Wheat plant response rating” value [15, 20] was 30. The “Plant response rating, Blackgrass” value [16, 19] was 0, the “Blackgrass plant response rating” value [16, 20] was 10 and the “Foxtail, Giant plant response rating” value ([17]; 125 g ai/ha) was 10. The “Foxtail, Giant plant response rating” value ([17]; 500 g ai/ha) was 90, the “Plant response rating, Kochia” value (kochia (Kochia scoparia) [18]; [19]) was 80 and the “Kochia plant response rating” value (kochia (Kochia scoparia) [18]; [20]) was 90.
